Legend:
Assay type in all cases: biochemical
[1] = target: T1, MMP-2 (Homo sapiens, UniProt P08253); test: In vitro MMP-2 inhibition test; settings: human MMP-2
T1 construct: purchased R&D Systems 902-MP
T1 sequence (P08253 110-660): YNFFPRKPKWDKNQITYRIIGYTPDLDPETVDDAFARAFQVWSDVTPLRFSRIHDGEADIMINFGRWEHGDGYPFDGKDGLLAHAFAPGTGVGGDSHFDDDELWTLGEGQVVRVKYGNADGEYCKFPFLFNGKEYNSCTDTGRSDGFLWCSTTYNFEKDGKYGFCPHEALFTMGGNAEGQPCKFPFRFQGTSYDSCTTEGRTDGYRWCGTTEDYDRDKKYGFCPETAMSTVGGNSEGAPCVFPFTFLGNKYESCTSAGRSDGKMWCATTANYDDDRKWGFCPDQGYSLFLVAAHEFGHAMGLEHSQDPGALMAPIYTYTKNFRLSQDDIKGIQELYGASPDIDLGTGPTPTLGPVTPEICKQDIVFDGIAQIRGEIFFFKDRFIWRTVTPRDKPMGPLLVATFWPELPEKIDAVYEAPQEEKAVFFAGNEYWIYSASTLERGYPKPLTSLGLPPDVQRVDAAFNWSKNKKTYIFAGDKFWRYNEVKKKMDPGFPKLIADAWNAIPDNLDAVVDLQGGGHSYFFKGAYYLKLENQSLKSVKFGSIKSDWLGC
Procedure, shortened: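 APMA-activated recombinant MMP-2 (final e.g. 2 nM) with compound (e.g. 1 nM to 30 μM) in Tris/HCl pH 7.5 buffer with CaCl2, NaCl, Brij-35. Reaction started with quenched Mca-PLGL-Dpa(Dnp)-AR-NH2 substrate (final e.g. 10 μM); fluorescence (ex 320/em 410 nm) followed e.g. 120 min at 32 °C; IC50 at 50% signal.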

[2] = target: T2, MMP-3 (Homo sapiens, UniProt P08254); test: In vitro MMP-3 inhibition test; settings: human MMP-3
T2 construct: purchased R&D Systems 513-MP
T2 sequence (P08254 100-477): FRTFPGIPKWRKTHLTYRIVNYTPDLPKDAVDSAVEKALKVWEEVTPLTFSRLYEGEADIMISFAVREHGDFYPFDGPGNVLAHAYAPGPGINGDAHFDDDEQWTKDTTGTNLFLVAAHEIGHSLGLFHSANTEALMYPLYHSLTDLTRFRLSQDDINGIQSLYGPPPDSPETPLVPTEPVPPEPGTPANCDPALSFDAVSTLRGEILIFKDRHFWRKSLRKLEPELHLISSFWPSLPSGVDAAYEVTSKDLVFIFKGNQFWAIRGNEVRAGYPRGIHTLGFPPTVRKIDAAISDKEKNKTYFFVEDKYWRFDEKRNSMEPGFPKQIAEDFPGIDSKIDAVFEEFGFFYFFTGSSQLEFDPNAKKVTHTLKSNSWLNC
Procedure, shortened: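 APMA-activated recombinant MMP-3 (e.g. 2 nM final) with compound in Tris/HCl pH 7.5, CaCl2, NaCl, Brij-35; reaction started with quenched Mca/Dnp peptide substrate (e.g. 10 μM final). Fluorescence (ex 320/em 410 nm) followed e.g. 120 min at 32 °C; IC50 is concentration giving 50% signal.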

[3] = target: T3, MMP-9 (Homo sapiens, UniProt P14780); test: In vitro MMP-9 inhibition test; settings: human MMP-9
T3 construct: purchased R&D Systems 911-MP
T3 sequence (P14780 107-707 limits assumed): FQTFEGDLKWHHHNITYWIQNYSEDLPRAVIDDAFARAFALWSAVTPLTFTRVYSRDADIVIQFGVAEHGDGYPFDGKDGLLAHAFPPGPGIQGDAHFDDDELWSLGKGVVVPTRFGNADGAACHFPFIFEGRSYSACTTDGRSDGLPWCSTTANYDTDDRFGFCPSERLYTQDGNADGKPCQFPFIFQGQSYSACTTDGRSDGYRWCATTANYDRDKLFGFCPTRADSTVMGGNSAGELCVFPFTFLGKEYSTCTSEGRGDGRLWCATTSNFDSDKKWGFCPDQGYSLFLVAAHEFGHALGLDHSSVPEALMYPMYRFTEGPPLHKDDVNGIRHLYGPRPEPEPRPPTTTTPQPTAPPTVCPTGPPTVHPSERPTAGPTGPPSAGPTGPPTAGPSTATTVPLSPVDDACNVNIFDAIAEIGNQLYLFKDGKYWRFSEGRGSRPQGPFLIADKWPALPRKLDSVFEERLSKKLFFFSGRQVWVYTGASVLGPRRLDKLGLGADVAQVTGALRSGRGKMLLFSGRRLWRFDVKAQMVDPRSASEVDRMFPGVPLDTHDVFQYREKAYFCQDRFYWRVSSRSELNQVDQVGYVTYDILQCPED
Procedure, shortened: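 Recombinant MMP-9, APMA-activated, at ~0.1 nM final in 50 mM Tris/HCl pH 7.5, 10 mM CaCl2, 150 mM NaCl, 0.05% Brij-35, with compound in DMSO (e.g. 1 nM–30 μM). Reaction started with 10 μM Mca-PLGL-Dpa(Dnp)-AR-NH2, and fluorescence (ex 320/em 410 nm) was followed e.g. 120 min at 32 °C. IC50 is the concentration giving 50% signal.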

[4] = target: T4, MMP-16 (Homo sapiens, UniProt P51512); test: In vitro MMP-16 inhibition test; settings: human MMP-16
T4 construct: purchased R&D Systems 1785-MP
T4 sequence (P51512 120-564 limits assumed): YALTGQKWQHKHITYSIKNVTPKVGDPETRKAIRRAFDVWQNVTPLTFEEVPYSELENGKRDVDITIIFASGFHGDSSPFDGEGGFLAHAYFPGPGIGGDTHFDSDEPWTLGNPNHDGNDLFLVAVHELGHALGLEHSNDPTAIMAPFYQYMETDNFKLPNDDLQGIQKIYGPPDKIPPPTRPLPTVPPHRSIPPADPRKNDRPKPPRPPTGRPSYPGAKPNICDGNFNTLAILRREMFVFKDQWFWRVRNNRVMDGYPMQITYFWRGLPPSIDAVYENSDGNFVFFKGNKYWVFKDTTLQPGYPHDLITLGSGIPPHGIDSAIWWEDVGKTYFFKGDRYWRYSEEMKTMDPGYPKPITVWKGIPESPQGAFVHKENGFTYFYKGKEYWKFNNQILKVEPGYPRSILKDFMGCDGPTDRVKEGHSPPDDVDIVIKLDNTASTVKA
Procedure, shortened: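 Furin-activated recombinant MMP-16 (e.g. 1 nM final) with compound (e.g. 1 nM–30 μM, DMSO) in 50 mM Tris/HCl pH 7.5, 10 mM CaCl2, 150 mM NaCl, 0.05% Brij-35. Reaction started with quenched Mca-Lys-Pro-Leu-Gly-Leu-Dpa(Dnp)-Ala-Arg-NH2 (e.g. 5 μM) and read by fluorescence (ex 320/em 410 nm), e.g. over 120 min at 32 °C. IC50 taken at 50% signal.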

Structure (SMILES)	IC50 [1]	IC50 [2]	IC50 [3]	IC50 [4]
O=C(CC(CCn1nnc2ccccc2c1=O)C(=O)O)c1cc2ccc(OCC3CC3)cc2s1 (single isomer, unassigned; (+)) [Example 112, (+)-4-[6-(Cyclopropylmethoxy)-1-benzothiophen-2-yl]-4-oxo-2-[2-(4-oxo-1,2,3-benzotriazin-3(4H)-yl)ethyl]butanoic acid]	0.22 µM	6.4 µM	0.59 µM	37 µM
O=C(CC(CCn1nnc2ccccc2c1=O)C(=O)O)c1cc2cc(OCCCC(F)(F)F)ccc2o1 (single isomer, unassigned; enantiomer 2) [Example 13, (+)-4-Oxo-2-[2-(4-oxo-1,2,3-benzotriazin-3(4H)-yl)ethyl]-4-[5-(4,4,4-trifluorobutoxy)-1-benzofur-2-yl]butanoic acid (enantiomer 2)]	1.3 µM	> 40 µM	3.8 µM	> 40 µM
O=C(C[C@H](CCn1nnc2ccccc2c1=O)C(=O)O)c1noc2cc(OCC3CCOCC3)ccc12 (single isomer, unassigned; enantiomer 2) [Example 135]	0.27 µM	12 µM	1.7 µM	36 µM
O=C(O)[C@@H]1[C@@H](Cn2nnc3ccc(C(F)(F)F)cc3c2=O)CC[C@H]1C(=O)c1cc2cc(OCCc3ccccc3)ccc2o1 (single isomer, unassigned; enantiomer 2) [Example 159, (+)-(1RS,2SR,5RS)-2-{[4-Oxo-6-(trifluoromethyl)-1,2,3-benzotriazin-3(4H)-yl]methyl}-5-{[5-(2-phenylethoxy)-1-benzofur-2-yl]carbonyl}cyclopentanecarboxylic acid (enantiomer 2)]	1.7 µM	2.2 µM	0.68 µM	3 µM

— patent US20170121315A1, “HETEROBICYCLICALLY SUBSTITUTED 4-OXOBUTANE ACID DERIVATIVES AND USE THEREOF” (priority 2014, published 2017)
